The test system of experiment [1] is reactive astrocytes / GL261 glioma. Kind of experiment: Reactive astrocyte depletion with GCV in GL261-bearing WT or Gfap-TK mice. In kind it is in vivo, mouse. From the text:
FIGS. 1A-I illustrate that depletion of Tumor-associated astrocytes (TAAs) regress glioblastoma progression. (FIG. 1A) Representative immunofluorescence images of reactive TAAs stained for GFAP (cyan) crowning a glioblastoma (GBM) tumor (GFP^+-GL261, white), and nuclei (DAPI, yellow). The right image is an expansion of the area marked by the white box. (n=3 biologically independent experiments, 3 mice per group). Scale bar, 1000 m; (FIGS. 1B-I) WT (wild type), or Gfap-TK GBM-bearing mice were treated daily with Ganciclovir (GCV, 25 mg/kg) from day 10 until the experimental endpoint as illustrated in FIG. 1B. (FIG. 1C) representative immunofluorescence images of reactive astrocyte depletion at the tumor margins (GFP^+-GL261, white), as detected by GFAP staining (cyan). Scale bars, 500 m. Data are representative of three independent experiments with n=4 mice/group. (FIGS. 1D-G) Tumor size in GCV-treated WT or Gfap-TK GBM-bearing littermates. (FIGS. 1D-E) Representative images of GL261-derived bioluminescence from each group are shown in FIG. 1D and quantification of tumor size in FIG. 1E. Data are representative of five independent experiments with n=6 mice/group. (FIGS. 1F-G) Representative images from each group, 17 days after GL261 cell implantation, are shown in FIG. 1F with quantification of tumor size in FIG. 1G, tumor (GL261 cells in purple), and nuclei (DAPI; white). Scale bar, 1000 m. Data are representative of three independent experiments with n=5 mice/group. (FIG. 1H) Bodyweight assessment of mice from FIGS. 1D-E. (FIG. 1I) Kaplan-Meier curves assessing overall survival. Data are representative of three independent experiments with n=8 mice/group. Data in FIGS. 1D-H are shown as mean±s.e.m. P values were determined by two-way ANOVA (FIGS. 1D-H) or Log rank (Mantel-Cox) test (FIG. 1I). *P<0.05, **P<0.01, ***P<0.001, n.s. not significant.
For intracranial mouse glioma, mice were anesthetized, positioned in a Stereotaxic Alignment System, and injected with 1.5×10^4 GL261 or CT-2A cells in 2 μl of DMEM. Injections were made to the right frontal lobe, approximately 2.5 mm lateral and 0.1 mm caudal from bregma at a depth of 3 mm. In-vivo bioluminescence imaging, following XenoLight D-luciferin Potassium Salt administration (150 mg/kg) i.p. administration, was determined using IVIS Spectrum system (PerkinElmer). Ganciclovir (GCV, Cymevene, Roche #SAP-10051872; 25 mg/kg), Diphtheria-toxin (DT, Sigma-Aldrich, #D0564; 1100 ng/mice), or vehicle control (PBS) were administered daily following tumor establishment (day 10), as previously described (Mayo, L., et al. Nat Med (2014) 20: 1147-1156). CD8^+ T cell depletion was performed using an anti-CD8 monoclonal antibody ([…], Bioxcell) or an isotype control monoclonal antibody (2A3, Bioxcell), as previously described (Takenaka, M. C. et al. Control of tumor-associated macrophages and T cells in glioblastoma via AHR and CD39. Nat Neurosci 22, 729-740 (2019)). GBM-bearing mice were intraperitoneally injected (0.1 mg/mouse) with an anti-CD8 or an isotype control mAbs, 1 day before, and 7 days after, GCV administration. CD8 T-cell depletion was validated by FACS analysis using a Sony SH800 FACS instrument (Sony Biotechnology). Data analysis was performed using FlowJo v10 (TreeStar, USA). The following reagents were used for analysis: anti-CD45 (1:100; 30-F11, Biolegend, #103106), anti-CD3[…] (1:50; 145-2C11, Biolegend #100335), and anti-CD8a (1:100; 53-6.7, Biolegend, #100765).
To study the role of TAAs in glioblastoma, the course of tumor progression was analyzed in mice expressing the herpes simplex virus thymidine kinase (HSVtk) under the Gfap promotor (Gfap-TK), in which Ganciclovir (GCV) administration can deplete reactive astrocytes. For this purpose, GFP^+GL261-Luc (GL261) was intracranially injected […], into syngeneic C57Bl/6 WT or into Gfap-TK littermates. […]

Experiment [2] relates to glioma. To be noted: OXPHOS-targeting drugs; cited from earlier work.
The subject of experiment [3] is GL261 and CT-2A glioma cells. The experiment is described as follows: Cell viability assay (Annexin V/DAPI FACS) of glioma cells. Format: cell-based, mouse. To be noted: GL261 or CT-2A in LPDS-media; cholesterol 250 ng/ml for 5 days; FIGS. 5F-G. How it is done: FIGS. 5A-N illustrate that astrocyte-derived cholesterol supports glioma survival. (FIGS. 5A-D) Real-time changes in the ECAR (FIGS. 5A-B) and oxygen consumption rate (OCR) (FIGS. 5C-D) of GL261 glioma cells, cultured in media supplemented with full serum (FCS, fetal calf serum) or lipoprotein-deprived serum (LPDS, Lipoprotein-deficient serum) for 18 hours and measured using Seahorse. Oligo, oligomycin; FCCP, carbonyl cyanide4-(trifluoromethoxy) phenylhydrazone; R/A, rotenone plus antimycin A; 2-DG, 2-deoxy-d-glucose. Glycolysis, glycolytic capacity and glycolytic reserve were extracted from the ECAR reading, and basal respiration, adenosine triphosphate (ATP) production, Maximal respiration, and spare respiratory capacity were determined based on OCR. Data are representative of two independent experiments (n=6 technical replicates per experiment). (FIG. 5E) Percentage of cell death of GL261 and CT-2A glioma cells, or primary astrocytes, cultured in FCS or LPDS for 5 days; as determined by Annexin-V assay (n=5 independent experiments). […] Representative flow cytometry plots of Annexin-V/DAPI staining from each group are shown in FIG. 5F and quantification analyses of cholesterol rescue are in FIG. 5G (n=5 biologically independent experiments). (FIGS. 5H-K) Representative images and quantification of LDLR expression (Immunoblot, FIGS. 5H-I) and cell death via FACS analysis of Annexin V/DAPI staining (FIGS. 5J-K) in response to endogenous LXR agonists (24-OHC) or Mock (DMSO) treatment in GL261 and CT-2A cells (n=3 biologically independent experiments). […] (FIGS. 5L-M) Representative flow cytometry plots of murine GL261 and CT-2A glioma cells co-cultured for 5 days with primary mouse astrocytes are shown in FIG. 5L and quantification analyses in FIG. 5M (n=4 biologically independent experiments). (FIG. 5N) quantification analyses of human U87EGFRvIII (U87) glioma cells co-cultured with human primary astrocytes for 5 days (n=3 biologically independent experiments). […]

Take `Nc1nc(O)c2ncn(COC(CO)CO)c2n1` [GCV, Ganciclovir]: in experiment [1] (GBM-bearing Gfap-TK mice (not in WT mice), GCV 25 mg/kg daily from day 10, FIG. 1C), the “reactive astrocytes around the tumors (GFAP staining)” value is on record as “specific ablation of reactive astrocytes”. Further, the weight loss result in experiment [1] (GCV-treated GL261-bearing Gfap-TK mice vs WT littermates, FIG. 1H) is recorded as “significantly attenuates the weight loss”. In addition, the survival result is recorded as “dramatically improves their survival” in experiment [1] (GCV-treated GL261-bearing Gfap-TK mice vs WT littermates, FIG. 1I) and “had no effect on survival” in experiment [1] (GL261-bearing WT mice, GCV vs vehicle, FIG. 7E). In experiment [1] (GCV-treated GL261-bearing Gfap-TK vs WT mice, day 17, FIGS. 3D-E), the “accumulation of IBA-1+ TAMs in the TME” value was “significantly reduces”. Further, in experiment [1] (GL261-bearing Gfap-TK mice, GCV 25 mg/kg daily from day 10, FIGS. 1D-G), the “tumor size (bioluminescence, histology)” value is on record as “dramatic tumor regression”. Besides, the “GBM progression (tumor size, bioluminescence)” value in experiment [1] (GL261-bearing WT mice, GCV 25 mg/kg daily vs vehicle, FIG. 7A) is recorded as “neither GCV treatment of WT mice nor genetic insertion of the HSVtk into Gfap-TK mice (without GCV treatment) affected GBM progression”.
As for `Cc1nc(-c2nc(-c3ccc(OC(F)(F)F)cc3)no2)nn1Cc1cccc(N2CCC(S(C)(=O)=O)CC2)c1` [IACS-010759], the “glioma proliferation and cell death” value in experiment [2] is “inhibit glioma proliferation and induce cell death”.
`CC(C)CCC[C@@H](C)[C@H]1CC[C@H]2[C@@H]3CC=C4C[C@@H](O)CC[C@]4(C)[C@H]3CC[C@]12C` [cholesterol]: the “rescue of glioma viability from lipoprotein-bound cholesterol deprivation” value in experiment [3] is listed as “overcame the deleterious effects of lipoprotein-bound cholesterol deprivation on glioma viability”.
With `CN(C)C(=N)N=C(N)N` [metformin], the “glioma proliferation and cell death” value in experiment [2] is “inhibit glioma proliferation and induce cell death”.
